Reference: PubChem BioAssay AID256 (DTP/NCI, 2004)
Where “and” joins values, the source holds several entries; their conditions need not be identical. Equal entries are not always repeated. Toxic doses and inconclusive results are not listed. How the source made its calls: active means survival T/C of 150% or more; inactive means T/C below 125% in these data.

System: CD2F1 mice, L1210 leukemia ip, survival T/C
Test: NCI In Vivo Anticancer Drug Screen. Data for tumor model L1210 Leukemia (intraperitoneal) in CD2F1 (CDF1) mice
Conditions: higher = longer survival
Outline: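 Ratio T/C, where T is the treated-group value and C the vehicle-dosed control value, from mice implanted with a transplantable tumor.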

[1] = endpoint: mean survival time, dose: 50.0 mg/kg/injection, schedule: Q01DX009 (ip), vehicle: Klucel (hydroxypropylcellulose) (HPC)
[2] = endpoint: mean survival time, dose: 100.0 mg/kg/injection, schedule: Q01DX009 (ip), vehicle: Klucel (hydroxypropylcellulose) (HPC)
[3] = endpoint: mean survival time, dose: 200.0 mg/kg/injection, schedule: Q01DX009 (ip), vehicle: Klucel (hydroxypropylcellulose) (HPC)
[4] = endpoint: mean survival time, dose: 12.5 mg/kg/injection, schedule: Q01DX009 (ip), vehicle: saline with Tween-80
[5] = endpoint: mean survival time, dose: 25.0 mg/kg/injection, schedule: Q01DX009 (ip), vehicle: saline with Tween-80
[6] = endpoint: mean survival time, dose: 50.0 mg/kg/injection, schedule: Q01DX009 (ip), vehicle: saline with Tween-80
[7] = endpoint: mean survival time, dose: 100.0 mg/kg/injection, schedule: Q01DX009 (ip), vehicle: saline with Tween-80
[8] = endpoint: mean survival time, dose: 200.0 mg/kg/injection, schedule: Q01DX009 (ip), vehicle: saline with Tween-80
[9] = endpoint: mean survival time, dose: 100.0 mg/kg/injection, schedule: Q04DX002 (ip), vehicle: saline with Tween-80
[10] = endpoint: mean survival time, dose: 200.0 mg/kg/injection, schedule: Q04DX002 (ip), vehicle: saline with Tween-80
[11] = endpoint: mean survival time, dose: 400.0 mg/kg/injection, schedule: Q04DX002 (ip), vehicle: saline with Tween-80
[12] = endpoint: mean survival time, dose: 100.0 mg/kg/injection, schedule: Q04DX003 (ip), vehicle: saline with Tween-80
[13] = endpoint: mean survival time, dose: 200.0 mg/kg/injection, schedule: Q04DX003 (ip), vehicle: saline with Tween-80
[14] = endpoint: mean survival time, dose: 400.0 mg/kg/injection, schedule: Q01DX009 (ip), vehicle: saline with Tween-80
[15] = endpoint: mean survival time, dose: 400.0 mg/kg/injection, schedule: Q04DX003 (ip), vehicle: saline with Tween-80

Measured: T/C

CCCCC(CC)C(=O)[O][Sn]([CH2]CCC)([CH2]CCC)[O]C(=O)C(CC)CCCC (stereo unspecified)
inactive: endpoint: mean survival time, dose: 1.5 mg/kg/injection, schedule: Q01DX009 (ip), vehicle: saline with Tween-80 100 % of control | endpoint: mean survival time, dose: 3.0 mg/kg/injection, schedule: Q01DX009 (ip), vehicle: saline with Tween-80 100 % of control | endpoint: mean survival time, dose: 6.0 mg/kg/injection, schedule: Q01DX009 (ip), vehicle: saline with Tween-80 104 % of control | endpoint: mean survival time, dose: 6.25 mg/kg/injection, schedule: Q04DX003 (ip), vehicle: saline with Tween-80 105 % of control

CC1(CCCc2ccc(N(CCCl)CCCl)cc2)NC(=O)NC1=O (stereo unspecified)
inactive: [1] 114 % of control | [2] 93 % of control | [3] 86 % of control

Cc1ccc(Cl)c2ccccc12
inactive: [4] 97 % of control | [5] 100 % of control | [6] 97 % of control | [7] 94 % of control

COc1cc(Cl)c(CC(=O)Cl)cc1OC
inactive: endpoint: mean survival time, dose: 75.0 mg/kg/injection, schedule: Q01DX001 (ip), vehicle: saline 105 % of control | endpoint: mean survival time, dose: 150.0 mg/kg/injection, schedule: Q01DX001 (ip), vehicle: saline 106 % of control | endpoint: mean survival time, dose: 300.0 mg/kg/injection, schedule: Q01DX001 (ip), vehicle: saline 95 % of control

COc1ccc(CC#N)cc1OC
inactive: endpoint: mean survival time, dose: 3.75 mg/kg/injection, schedule: Q01DX009 (ip), vehicle: saline with Tween-80 95 % of control | endpoint: mean survival time, dose: 3.75 mg/kg/injection, schedule: Q04DX003 (ip), vehicle: saline with Tween-80 107 % of control | endpoint: mean survival time, dose: 7.5 mg/kg/injection, schedule: Q01DX009 (ip), vehicle: saline with Tween-80 95 % of control | endpoint: mean survival time, dose: 7.5 mg/kg/injection, schedule: Q04DX003 (ip), vehicle: saline with Tween-80 103 % of control | endpoint: mean survival time, dose: 15.0 mg/kg/injection, schedule: Q01DX009 (ip), vehicle: saline with Tween-80 95 % of control | endpoint: mean survival time, dose: 15.0 mg/kg/injection, schedule: Q04DX003 (ip), vehicle: saline with Tween-80 103 % of control

O=C1C=CC(=O)N1c1ccc(F)cc1 (tested in a mixture with another compound)
inactive: [6] 96 % of control | [7] 91 % of control | [8] 86 % of control

CC(OC1OC(C(=O)O)C(O)C(O)C1O)c1ccccc1 (stereo unspecified)
inactive: endpoint: mean survival time, dose: 100.0 mg/kg/injection, schedule: Q04DX003 (ip), vehicle: saline 98 % of control | endpoint: mean survival time, dose: 200.0 mg/kg/injection, schedule: Q04DX003 (ip), vehicle: saline 98 % of control | endpoint: mean survival time, dose: 400.0 mg/kg/injection, schedule: Q04DX003 (ip), vehicle: saline 93 % of control

Clc1cc2n[nH]nc2c(Cl)n1
inactive: endpoint: mean survival time, dose: 25.0 mg/kg/injection, schedule: Q01DX009 (ip), vehicle: water 90 % of control | endpoint: mean survival time, dose: 50.0 mg/kg/injection, schedule: Q01DX009 (ip), vehicle: water 90 % of control | endpoint: mean survival time, dose: 100.0 mg/kg/injection, schedule: Q01DX009 (ip), vehicle: water 90 % of control

O=c1c2ccccc2[nH]c(=S)n1C1CCCC1
inactive: [9] 96 % of control | [10] 108 % of control | [11] 100 % of control

COc1ccc(/C=C/C(=O)c2ccc(Cl)cc2)c(OC)c1
inactive: endpoint: mean survival time, dose: 100.0 mg/kg/injection, schedule: Q04DX003 (ip), vehicle: other 101 % of control | endpoint: mean survival time, dose: 200.0 mg/kg/injection, schedule: Q04DX003 (ip), vehicle: other 95 % of control | endpoint: mean survival time, dose: 400.0 mg/kg/injection, schedule: Q04DX003 (ip), vehicle: other 93 % of control

Nc1nc(-c2ccccc2)cs1
inactive: [12] 105 % of control

O=C1NC(=O)c2ccc3c4c(ccc1c24)C(=O)NC3=O
inactive: endpoint: mean survival time, dose: 15.5 mg/kg/injection, schedule: Q01DX009 (ip), vehicle: saline with Tween-80 100 % of control | endpoint: mean survival time, dose: 31.0 mg/kg/injection, schedule: Q01DX009 (ip), vehicle: saline with Tween-80 94 % of control | endpoint: mean survival time, dose: 62.0 mg/kg/injection, schedule: Q01DX009 (ip), vehicle: saline with Tween-80 100 % of control | endpoint: mean survival time, dose: 62.5 mg/kg/injection, schedule: Q01DX009 (ip), vehicle: saline with Tween-80 98 % of control

COC(=O)C1C2CC(C3OC23)C1C(=O)OC (stereo unspecified)
inactive: [7] 100 % of control | [12] 97 % of control | [8] 115 % of control | [13] 89 % of control | [14] 102 % of control | [15] 103 % of control

CC1(C)CC2(OC2c2ccc([N+](=O)[O-])cc2)C(=O)c2ccccc21 (stereo unspecified)
inactive: endpoint: mean survival time, dose: 12.5 mg/kg/injection, schedule: Q01DX009 (ip), vehicle: Klucel (hydroxypropylcellulose) (HPC) 93 % of control | endpoint: mean survival time, dose: 25.0 mg/kg/injection, schedule: Q01DX009 (ip), vehicle: Klucel (hydroxypropylcellulose) (HPC) 94 % of control | [1] 98 % of control | [6] 93 % of control | [2] 100 % of control | [7] 93 % of control | [12] 89 % of control | [3] 100 % of control | [8] 96 % of control | [13] 88 % of control | endpoint: mean survival time, dose: 400.0 mg/kg/injection, schedule: Q01DX009 (ip), vehicle: Klucel (hydroxypropylcellulose) (HPC) 96 % of control

Cc1ccc(S(=O)(=O)Nc2ccccc2)c(C(O)(c2ccccc2)c2ccccc2)c1
inactive: [12] 95 % of control | [13] 106 % of control | [15] 95 % of control

CCOC(=O)C1C(C(=O)OCC)C(C)(C)C1N(C)C (stereo unspecified)
inactive: [6] 107 % of control | [7] 98 % of control | [8] 98 % of control

O=C(Nc1cccc(O)c1)c1ccc([N+](=O)[O-])cc1
inactive: endpoint: mean survival time, dose: 100.0 mg/kg/injection, schedule: Q04DX003 (ip), vehicle: Klucel (hydroxypropylcellulose) (HPC) 97 % of control | endpoint: mean survival time, dose: 200.0 mg/kg/injection, schedule: Q04DX003 (ip), vehicle: Klucel (hydroxypropylcellulose) (HPC) 107 % of control | endpoint: mean survival time, dose: 400.0 mg/kg/injection, schedule: Q04DX003 (ip), vehicle: Klucel (hydroxypropylcellulose) (HPC) 108 % of control

CCCCCC1c2cc(O)ccc2OC1N1CCOCC1 (stereo unspecified)
inactive: endpoint: median survival time, dose: 12.0 mg/kg/injection, schedule: Q01DX009 (ip), vehicle: saline with Tween-80 108 % of control | endpoint: median survival time, dose: 25.0 mg/kg/injection, schedule: Q01DX009 (ip), vehicle: saline with Tween-80 106 % of control | endpoint: median survival time, dose: 50.0 mg/kg/injection, schedule: Q01DX009 (ip), vehicle: saline with Tween-80 97 % of control | endpoint: median survival time, dose: 100.0 mg/kg/injection, schedule: Q01DX009 (ip), vehicle: saline with Tween-80 102 % of control | endpoint: median survival time, dose: 200.0 mg/kg/injection, schedule: Q01DX009 (ip), vehicle: saline with Tween-80 98 % of control

CCCCCCC(C)Oc1ccccc1Cl (stereo unspecified)
inactive: [9] 107 % of control | [10] 86 % of control | [11] 96 % of control

NCCc1ccncc1
inactive: endpoint: mean survival time, dose: 100.0 mg/kg/injection, schedule: Q04DX002 (ip), vehicle: saline 92 % of control | endpoint: mean survival time, dose: 200.0 mg/kg/injection, schedule: Q04DX002 (ip), vehicle: saline 92 % of control | endpoint: mean survival time, dose: 400.0 mg/kg/injection, schedule: Q04DX002 (ip), vehicle: saline 111 % of control

CCCN1CSC(=S)N(Cc2ccccc2)C1
inactive: [7] 92 % of control | [8] 97 % of control | [14] 92 % of control

COc1cc(OC)c(NC(=O)NCc2ccco2)cc1Cl
inactive: [4] 103 % of control | [5] 95 % of control | [6] 88 % of control and 98 % of control | [8] 92 % of control

O=C(O)c1cc(C(=O)O)c(C(=O)O)cc1C(=O)O.[NH-]C1CCCC1.[NH-]C1CCCC1.[NH-]C1CCCC1.[NH-]C1CCCC1.[Pt+2].[Pt+2]
inactive: endpoint: mean survival time, dose: 3.12 mg/kg/injection, schedule: Q04DX003 (ip), vehicle: distilled water + Tween-80 103 % of control | endpoint: mean survival time, dose: 6.25 mg/kg/injection, schedule: Q04DX003 (ip), vehicle: distilled water + Tween-80 107 % of control | endpoint: mean survival time, dose: 12.5 mg/kg/injection, schedule: Q04DX003 (ip), vehicle: distilled water + Tween-80 108 % of control | endpoint: mean survival time, dose: 25.0 mg/kg/injection, schedule: Q04DX003 (ip), vehicle: distilled water + Tween-80 111 % of control | endpoint: mean survival time, dose: 50.0 mg/kg/injection, schedule: Q04DX003 (ip), vehicle: distilled water + Tween-80 108 % of control | endpoint: mean survival time, dose: 100.0 mg/kg/injection, schedule: Q04DX003 (ip), vehicle: distilled water + Tween-80 113 % of control | endpoint: mean survival time, dose: 200.0 mg/kg/injection, schedule: Q04DX003 (ip), vehicle: distilled water + Tween-80 124 % of control
